# Source: patent US20240207254A1, “METHODS FOR TITRATING MITAPIVAT” (Agios Pharmaceuticals, Inc., priority 2021, published 2024)
# Assay: phase 2 study: sudden withdrawal or missed doses of mitapivat, acute hemolysis
# Format: in vivo, human
# Method: Clinical studies have also shown that acute hemolysis with subsequent anemia can occur following abrupt interruption or discontinuation of mitapivat. […] For example, in a phase 2 study with 300 mg of mitapivat dosed twice daily, 3.8% of subjects experienced hemolysis upon sudden withdrawal of mitapivat, including 1 serious adverse event of acute hemolysis. […] Although the exact risk factors which make someone susceptible to acute hemolysis cannot be determined, it appears that the rapid loss of hemoglobin is an issue for these cases. Given the uncertainty as to who is likely to experience signs or symptoms of acute hemolysis (or subsequent anemia), it is important to develop means for mitigating such events.
smiles,measurement,setting,value
"O=C(c1ccc(NS(=O)(=O)c2cccc3cccnc23)cc1)N1CCN(CC2CC2)CC1 [mitapivat, N-(4-(4-(cyclopropylmethyl)piperazine-1-carbonyl)phenyl)quinoline-8-sulfonamide]",events indicative of acute hemolysis after missed doses,patients who missed only a few doses later in their treatment course,did not experience events indicative of acute hemolysis
same,subjects who experienced hemolysis upon sudden withdrawal of mitapivat,"phase 2 study, 300 mg mitapivat dosed twice daily, sudden withdrawal",3.8%
same,serious adverse event of acute hemolysis (number of events),"phase 2 study, 300 mg twice daily, sudden withdrawal, included in the 3.8%",1
